{
  "source": "patent US11236102B2",
  "about": "“Oxabicycloheptane prodrugs” (Lixte Biotechnology, Inc., priority 2015, dated 2022)",
  "experiment": "in vivo",
  "set-up": "species or system SD rats",
  "method": "105 was dissolved in 4% NaHCO3 in saline for IV administration. The detailed procedure of dosing solution preparation was presented in Appendix I.\nThirteen (13) animals were placed on the study. The animals in IV arm were free access to food and water. One extra animal was used for blank liver and plasma generation (5 mL per animal). The resulting blank liver and plasma was then applied to the development of bioanalytical method and sample bioanalysis for the entire study.\nThe IV injection was conducted via foot dorsal vein. Animals were free access to food and water before dose.\nThe animal is restrained manually. Approximately 150 μL of blood/time point is collected into sodium heparin tube via cardiac puncture for terminal bleeding (anesthetized under carbon dioxide). Blood sample will be put on ice and centrifuged to obtain plasma sample (2000 g, 5 min under 4° C.) within 10 minutes.\nThe animal will be euthanized with carbon dioxide inhalation. Open abdominal cavity with scissor to expose internal organs. Hold the carcass in an upright position and allow the organs to fall forward. Cut the connective tissues and remove the organs. Then the organs are rinsed with cold saline, dried on filtrate paper, placed into a screw-top tube and weighed, snap frozen by placing into dry-ice immediately.\nPlasma and liver samples were stored at approximately −80° C. until analysis. The backup samples will be discarded after three weeks after in-life completion unless requested. The unused dosing solutions will be discarded within three weeks after completion of the study\nSoftware: The PK parameters were determined by non-compartmental model of non-compartmental analysis tool, Pharsight Phoenix WinNonlin® 6.2 software.\nConcentration data within 80%-120% of LLOQ was considered within normal instrumental variation and presented in the results. Terminal t1/2 calculation: Time points were automatic selected by “best fit” model for terminal half life estimation as the first option. Manual selection was applied when “best fit” could not well define the terminal phase.",
  "key": {"[1]": {"settings": "IV 1 mg/kg, 0.25 hr, individual, 1 mg/kg"}, "[2]": {"settings": "IV 1 mg/kg, 1 hr, individual, 1 mg/kg"}, "[3]": {"settings": "IV 1 mg/kg, 2 hr, individual, 1 mg/kg"}},
  "note": "Values joined by “and” are separate entries in the source; they are usually repeats but may differ in a detail not shown here. Identical values can stand only once. Like-named read-outs stand apart in the source and are kept apart here.",
  "data": [
    {"smiles": "CCN1CCN(C(=O)C2C3CCC(O3)C2C(=O)O)CC1", "note": "(stereo not drawn) [Compound 105]", "values": [
      {"measurement": "AUC(0-last) in liver", "setting": "105, IV 1 mg/kg, mean", "result": 1019, "unit": "ng·h/g"},
      {"measurement": "Liver-plasma concentration ratio of 105", "setting": "[1]", "result": 0.646},
      {"measurement": "liver concentration of 105", "setting": "[1]", "result": 988, "unit": "ng/g"},
      {"measurement": "plasma concentration of 105", "setting": "[1]", "result": 1530, "unit": "ng/mL"},
      {"measurement": "Liver-plasma concentration ratio of 105", "setting": "[2]", "result": 1.96},
      {"measurement": "liver concentration of 105", "setting": "[2]", "result": 446, "unit": "ng/g"},
      {"measurement": "plasma concentration of 105", "setting": "[2]", "result": 228, "unit": "ng/mL"},
      {"measurement": "Liver-plasma concentration ratio of 105", "setting": "[3]", "result": "2.19 and 6.09"},
      {"measurement": "liver concentration of 105", "setting": "[3]", "result": 131, "unit": "ng/g"},
      {"measurement": "plasma concentration of 105", "setting": "[3]", "result": "45.2 ng/mL and 21.5 ng/mL"},
      {"measurement": "liver concentration of 105", "setting": "IV 1 mg/kg, 6 hr, individual", "result": "BQL"},
      {"measurement": "plasma concentration of 105", "setting": "IV 1 mg/kg, 6 hr, individual", "result": "BQL"},
      {"measurement": "liver concentration of 105", "setting": "IV 1 mg/kg, 6 hr, mean", "result": "BQL"},
      {"measurement": "plasma concentration of 105", "setting": "IV 1 mg/kg, 6 hr, mean", "result": "BQL"},
      {"measurement": "liver concentration of 105", "setting": "IV 1 mg/kg, 10 hr, individual", "result": "BQL"},
      {"measurement": "plasma concentration of 105", "setting": "IV 1 mg/kg, 10 hr, individual", "result": "BQL"},
      {"measurement": "liver concentration of 105", "setting": "IV 1 mg/kg, 10 hr, mean", "result": "BQL"},
      {"measurement": "plasma concentration of 105", "setting": "IV 1 mg/kg, 10 hr, mean", "result": "BQL"},
      {"measurement": "liver concentration of 105", "setting": "IV 1 mg/kg, 24 hr, individual", "result": "BQL"},
      {"measurement": "plasma concentration of 105", "setting": "IV 1 mg/kg, 24 hr, individual", "result": "BQL"},
      {"measurement": "liver concentration of 105", "setting": "IV 1 mg/kg, 24 hr, mean", "result": "BQL"},
      {"measurement": "plasma concentration of 105", "setting": "IV 1 mg/kg, 24 hr, mean", "result": "BQL"},
      {"measurement": "Kp at 0.25 h", "setting": "male, SD, rat, in vivo, iv, 1 mg/kg, IV 1 mg/kg, 0.25 hr, individual, read-out: Liver-plasma concentration ratio of 105", "result": 0.554},
      {"measurement": "concentration at 0.25 hr", "setting": "male, SD, rat, in vivo, iv, 1 mg/kg, IV 1 mg/kg, 0.25 hr, individual, read-out: liver concentration of 105", "result": 1070, "unit": "ng/g"},
      {"measurement": "concentration at 0.25 hr", "setting": "male, SD, rat, in vivo, iv, 1 mg/kg, IV 1 mg/kg, 0.25 hr, individual, read-out: plasma concentration of 105", "result": 1930, "unit": "ng/mL"},
      {"measurement": "Kp at 0.25 h", "setting": "male, SD, rat, in vivo, iv, 1 mg/kg, IV 1 mg/kg, 0.25 hr, mean, read-out: Liver-plasma concentration ratio of 105", "result": 0.6},
      {"measurement": "concentration at 0.25 hr", "setting": "male, SD, rat, in vivo, iv, 1 mg/kg, IV 1 mg/kg, 0.25 hr, mean, read-out: liver concentration of 105", "result": 1030, "unit": "ng/g"},
      {"measurement": "concentration at 0.25 hr", "setting": "male, SD, rat, in vivo, iv, 1 mg/kg, IV 1 mg/kg, 0.25 hr, mean, read-out: plasma concentration of 105", "result": 1730, "unit": "ng/mL"},
      {"measurement": "Kp at 1 h", "setting": "male, SD, rat, in vivo, iv, 1 mg/kg, IV 1 mg/kg, 1 hr, individual, read-out: Liver-plasma concentration ratio of 105", "result": 2.19},
      {"measurement": "concentration at 1 h", "setting": "male, SD, rat, in vivo, iv, 1 mg/kg, IV 1 mg/kg, 1 hr, individual, read-out: liver concentration of 105", "result": 576, "unit": "ng/g"},
      {"measurement": "concentration at 1 hr", "setting": "male, SD, rat, in vivo, iv, 1 mg/kg, IV 1 mg/kg, 1 hr, individual, read-out: plasma concentration of 105", "result": 263, "unit": "ng/mL"},
      {"measurement": "Kp at 1 h", "setting": "male, SD, rat, in vivo, iv, 1 mg/kg, IV 1 mg/kg, 1 hr, mean, read-out: Liver-plasma concentration ratio of 105", "result": 2.07},
      {"measurement": "concentration at 1 h", "setting": "male, SD, rat, in vivo, iv, 1 mg/kg, IV 1 mg/kg, 1 hr, mean, read-out: liver concentration of 105", "result": 511, "unit": "ng/g"},
      {"measurement": "concentration at 1 hr", "setting": "male, SD, rat, in vivo, iv, 1 mg/kg, IV 1 mg/kg, 1 hr, mean, read-out: plasma concentration of 105", "result": 246, "unit": "ng/mL"},
      {"measurement": "concentration at 2 h", "setting": "male, SD, rat, in vivo, iv, 1 mg/kg, IV 1 mg/kg, 2 hr, individual, read-out: liver concentration of 105", "result": 99.2, "unit": "ng/g"},
      {"measurement": "Kp at 2 h", "setting": "male, SD, rat, in vivo, iv, 1 mg/kg, IV 1 mg/kg, 2 hr, mean, read-out: Liver-plasma concentration ratio of 105", "result": 4.14},
      {"measurement": "concentration at 2 h", "setting": "male, SD, rat, in vivo, iv, 1 mg/kg, IV 1 mg/kg, 2 hr, mean, read-out: liver concentration of 105", "result": 115, "unit": "ng/g"},
      {"measurement": "concentration at 2 hr", "setting": "male, SD, rat, in vivo, iv, 1 mg/kg, IV 1 mg/kg, 2 hr, mean, read-out: plasma concentration of 105", "result": 33.4, "unit": "ng/mL"},
      {"measurement": "AUC(0-t)", "setting": "male, SD, rat, in vivo, 105 in liver, IV 1 mg/kg, mean, read-out: AUC(0-t)", "result": 1020},
      {"measurement": "Cmax", "setting": "male, SD, rat, in vivo, 105 in liver, IV 1 mg/kg, mean, read-out: Cmax", "result": 1030, "unit": "ng/mL"},
      {"measurement": "MRT inf", "setting": "male, SD, rat, in vivo, 105 in plasma, IV 1 mg/kg, mean", "result": 19.7, "unit": "min"},
      {"measurement": "Cmax", "setting": "male, Sprague-Dawley, rat, in vivo, 105, IV 1 mg/kg, mean, read-out: Cmax in liver", "result": 1030, "unit": "ng/g"},
      {"measurement": "Tmax", "setting": "male, Sprague-Dawley, rat, in vivo, 105 in liver, IV 1 mg/kg, mean", "result": 15, "unit": "min"},
      {"measurement": "clearance", "setting": "male, Sprague-Dawley, rat, in vivo, 105 in plasma, IV 1 mg/kg, mean", "result": 10.9, "unit": "mL/min/kg"},
      {"measurement": "AUC(0-t)", "setting": "male, Sprague-Dawley, rat, in vivo, 105 in plasma, IV 1 mg/kg, mean, read-out: AUC(0-t) (AUClast)", "result": 1510, "unit": "ng·h/mL"},
      {"measurement": "AUC(0-inf)", "setting": "male, Sprague-Dawley, rat, in vivo, 105 in plasma, IV 1 mg/kg, mean, read-out: AUC(0-∞) (AUCINF)", "result": 1530, "unit": "ng·h/mL"},
      {"measurement": "Vd", "setting": "male, Sprague-Dawley, rat, in vivo, 105 in plasma, IV 1 mg/kg, mean, read-out: Vss", "result": 0.215, "unit": "L/kg"},
      {"measurement": "half-life", "setting": "male, Sprague-Dawley, rat, in vivo, 105 in plasma, IV 1 mg/kg, mean, read-out: t1/2z (terminal half life) (converted)", "result": 18.5, "unit": "min"}
    ]}
  ]
}
